Measured values from US20240156767A1, “SCREENING METHOD FOR GLP-1 SECRETION REGULATION AGENT, GLP-1 SECRETION REGULATION AGENT, COMPOSITION FOR PREVENTING OR AMELIORATING DIABETES, OBESITY, POSTPRANDIAL HYPERGLYCEMIA, NEURODEGENERATIVE DISEASE, HYPOGLYCEMIA, ADIPOSITY, OR NESIDIOBLASTOSIS, METHOD FOR PROMOTING SECRETION OF GLP-1 IN …” (The Nisshin OilliO Group, Ltd., priority 2021, published 2024).

Key:
Assay type in all cases: in vivo
[1] = test system: wild-type mice; assay: Administration test: plasma GLP-1 concentration in wild-type mice (ELISA); conditions: WT mice, 1000 mg/kg oral; for Relative GLP-1 (plasma GLP-1 concentration relative to before administration = 1): 120 minutes after administration, mean±standard error
Procedure: An administration test was carried out by the following method to examine an effect of administration of various medium chain fatty acids (capric acid or lauric acid, both are a free form) to mice on plasma GLP-1 secretion. The above medium chain fatty acids correspond to GPR84 agonists. A control sample (carboxymethylcellulose), a capric acid sample, and a lauric acid sample were prepared in the same manner as in the <Test 2> above. Based on the following method, any one of a control sample, a capric acid sample, and a lauric acid sample was administered to mice in each group. In this test, two types of mice, that is, wild-type mice and GPR84 knockout mice, were prepared. As wild-type mice, 18 C57BL/6 male mice at 7- to 9-weeks old (purchased from Japan SLC, Inc.) were used. As the GPR84 knockout mice, 12 mice were prepared using C57BL/6 according to the method by Wang et al. (Pharmacological Research Volume 164, February 2021, 105406). Furthermore, the age in weeks of the GPR84 knockout mice was the same as that of the wild-type mice. Each mouse was acclimatized for one week, and then divided into six groups (a control sample-administered group, a capric acid sample-administered group, and a lauric acid sample administration group for each of the wild-type mice and the GPR84 knockout mice) so that average value of the body weight is uniform in each group. Note here that the mice were reared in plastic cages under an environment of temperature of 24±1° C., humidity of 50±10%, and a 12-hour light-dark cycle (lighting from 8:00 to 20:00). Water and solid feed (trade name “CLEA Rodent Diet CE-2 for mice, rats and hamsters”, manufactured by CLEA Japan Co., Ltd.) were fed ad libitum. However, the day before the glucose tolerance test, fasting was started from 17:00, and on the day of the test, the administration was started from 10:00. Each sample (any one of a control sample, a capric acid sample, and a lauric acid sample) was administered to each group of mice after blood was collected from the tail vein. […] Plasma was prepared by a conventional method from the blood obtained before and after sample administration, and the plasma GLP-1 concentration (pM) was measured. The plasma GLP-1 concentration was measured by ELISA using a commercially available kit (trade name “Glucagon Like Peptide-1 (Active) ELIS”, manufactured by Sigma-Aldrich). The data in FIG. 3 and Table 3 are expressed as relative values (Relative GLP-1) when the average value of plasma GLP-1 concentration before administration of each sample is set to “1”, and expressed as “mean±standard error of the relative values”. Dunnet's test was used to test significant differences between trials, and significant differences were determined to exist when the risk rate was less than 5% (*p<0.05). […]

[2] = test system: GPR84 knockout mice; assay: Administration test: plasma GLP-1 concentration in GPR84 knockout mice (ELISA); conditions: GPR84KO mice; 1000 mg/kg oral; 120 minutes after administration; mean±standard error
Procedure: An administration test was carried out by the following method to examine an effect of administration of various medium chain fatty acids (capric acid or lauric acid, both are a free form) to mice on plasma GLP-1 secretion. The above medium chain fatty acids correspond to GPR84 agonists. A control sample (carboxymethylcellulose), a capric acid sample, and a lauric acid sample were prepared in the same manner as in the <Test 2> above. Based on the following method, any one of a control sample, a capric acid sample, and a lauric acid sample was administered to mice in each group. In this test, two types of mice, that is, wild-type mice and GPR84 knockout mice, were prepared. As wild-type mice, 18 C57BL/6 male mice at 7- to 9-weeks old (purchased from Japan SLC, Inc.) were used. […] Plasma was prepared by a conventional method from the blood obtained before and after sample administration, and the plasma GLP-1 concentration (pM) was measured. The plasma GLP-1 concentration was measured by ELISA using a commercially available kit (trade name “Glucagon Like Peptide-1 (Active) ELIS”, manufactured by Sigma-Aldrich). The data in FIG. 3 and Table 3 are expressed as relative values (Relative GLP-1) when the average value of plasma GLP-1 concentration before administration of each sample is set to “1”, and expressed as “mean±standard error of the relative values”. […]

[3] = test system: GPR84 knockout mice; assay: Same test as Test 2 (glucose tolerance, plasma insulin) using GPR84 knockout mice, data not shown; conditions: effect lower than with wild-type mice
Excerpt: However, the increasing effect was lower than with wild-type mice. […] It was inferred that the total insulin secretion was reduced compared with that of wild-type mice.

Structure (SMILES)	Effect on plasma GLP-1 concentration (in words) [1]	Relative GLP-1 (plasma GLP-1 concentration relative to before administration = 1) [1]	Relative GLP-1 (plasma GLP-1 concentration relative to before administration = 1) [2]	Effect on plasma insulin concentration (in words) [3]
CCCCCCCCCC(=O)O [Capric acid, capric acid (n-decanoic acid)]	significantly increased the plasma GLP-1 concentration	1.65 ± 0.29 *	0.63 ± 0.2	increased the plasma insulin concentration
CCCCCCCCCCCC(=O)O [Lauric acid, lauric acid]	significantly increased the plasma GLP-1 concentration	3.02 ± 0.67 *	0.68 ± 0.19	increased the plasma insulin concentration
